Data from patent US7091038B2, “Ecdysone receptor-based inducible gene expression system” (RheoGene, Inc., priority 2000, dated 2006).

How the values were obtained:
[1] = system: EcR/RXR receptor combinations; assay: Truncated CfEcR and MmRXR receptor combinations, luciferase reporter in NIH3T3 cells; type: cell-based, Choristoneura fumiferana; Mus musculus; conditions: 0, 1, 5 or 25 uM ligand for 48 hr, FIGS. 11–14
Description: Briefly, polynucleotides encoding EcR or RXR receptors were truncated at the junctions of A/B, C, D, E and F domains and fused to either a GAL4 DNA binding domain encoding polynucleotide (SEQ ID NO: 43) for CfEcR, or a VP16 activation domain encoding polynucleotide (SEQ ID NO: 49) for MmRXR as described in Example 1. The resulting receptor truncation/fusion polypeptides were assayed in NIH3T3 cells. Plasmid pFRLUC (Stratagene) encoding a luciferase polypeptide was used as a reporter gene construct and pTKRL (Promega) encoding a Renilla luciferase polypeptide under the control of the constitutive TK promoter was used to normalize the transfections as described above. The analysis was performed in triplicates and mean luciferase counts were determined as described above. […]

GAL4RXR + VP16CfEcR = assay: Transactivation of reporter gene through switch 1.3 in CV1 cells; type: cell-based, Mus musculus; Choristoneura fumiferana; conditions: switch 1.3, pGAL4RELuc
Description: (§1) The cells were harvested and reporter activity was assayed.
The cells were plated when they reached 50% confluency.
The same procedures described for NIH3T3 cells were followed for CV1 cells
(§2) Cells were harvested 24–48 hr after adding ligands. […] Twenty μl of lysate was assayed.

CfEcRDEF:MmRXRDEF = assay: CfEcR-based yeast two-hybrid assay, LacZ reporter pSH118; type: cell-based, Choristoneura fumiferana; Mus musculus
Text: This construct results in a LexA:CfEcRDEF fusion that is expressed under the GAL1 promoter.
The D, E, and F domains from mouse (Mus musculus) RXR α (“MmRXRDEF”; SEQ ID NO: 22) were fused to a B42 transactivation domain (“B42AD”; SEQ ID NO: 53) and placed under the control of a GAL1 promoter (SEQ ID NO: 73) in pB42AD (CLONTECH). This construct results in a B42AD:MmRXR-DEF fusion that is expressed under the GAL 1 promoter.
A reporter plasmid comprising a β-galactosidase gene (LacZ; SEQ ID NO: 74) under the control of an 8XLexA operon response element (“8XlexAop”; SEQ ID NO: 75) operably linked to a minimal TATAA region from the GAL1 promoter (p8op-lacZ from CLONTECH) was used to monitor inducible gene expression.
Saccharomyces cerevisiae yeast cells (EGY48; CLONTECH) were used in these experiments. Cells were maintained in liquid culture media with the appropriate drop out amino acids. Standard methods for culture and maintenance of the cells were followed. […]
DNA constructs pSH118, CfEcRDEF, and MmRXRA/BCDEF, MmRXRDEF, or […] were transfected into yeast cells. […] A colony from each group of transformants was grown in the liquid culture in the presence of 0, 0.04, 0.2, 1, 5 and 25 μM GS™-E. The reporter activity was measured as described above 4 hours after adding ligand. Total RLUs were calculated and the numbers on the bars of FIG. 16 show maximum fold induction observed for that group (see FIGS. 16 and 17).
The best performing transformed yeast strain from the analysis above comprising CfEcRDEF:MmRXRDEF was used to determine the induction activity of three steroid ligands (20E, PonA, MurA) and four non-steroid ligands (GS™-E, RH2485, RH5992, RH5849) in this yeast-based format. The yeast cells were cultured in the presence of 0, 0.l, 1, 10, 50 and 100 μM ligands for four hours and the reporter activity was measured as described above. Total RLUs were calculated and the numbers on the top of the bars of FIG. 18 show the maximum fold induction for that group (see FIGS. 18 and 19).

VP16CfEcR = assay: Transactivation of reporter gene through switch 1.7 in CHO cells; type: cell-based, Choristoneura fumiferana; conditions: switch 1.7, pEcRELuc
Description: Six ecdysone response elements (“EcRE”; SEQ ID NO: 55) from the hsp27 gene were placed upstream of the promoter and a luciferase gene (SEQ ID NO: 66). This switch most probably uses endogenous RXR.
as §1, §2

CCc1c(OC)cccc1C(=O)NN(C(=O)c1cc(C)cc(C)c1)C(C)(C)C [N-(2-ethyl-3-methoxybenzoyl)-N′-(3,5-dimethylbenzoyl)-N′-t-butylhydrazine]
Sensitivity of the EcR/RXR switch to the ligand [1]: much more sensitive
Mean Fold Activation Through N-(2-ethyl-3-methoxybenzoyl)-N′-(3,5-dimethylbenzoyl)-N′-t-butylhydrazine (GAL4RXR + VP16CfEcR): 25 fold
Fold induction (CfEcRDEF:MmRXRDEF; yeast cells, CfEcRDEF/MmRXRDEF, 0–25 μM, 4 hours after adding ligand): approximately 1800 fold
Induction of gene expression (relative performance of ligands) (CfEcRDEF:MmRXRDEF; yeast strain comprising CfEcRDEF:MmRXRDEF, 0–100 μM ligand for four hours, FIGS. 18 and 19): induce gene expression better than any other ligand tested
Mean Fold Activation with 50 μM N-(2-ethyl-3-methoxybenzoyl)-N′-(3,5-dimethylbenzoyl)-N′-t-butylhydrazine (VP16CfEcR): 36 fold
